Our source for the IC50 values is US8158792B2, “Spiropiperidines for use as tryptase inhibitors” (Janssen Pharmaceutica N.V., priority 2007, dated 2012).

In this test the target is human lung tryptase. As to the kind of experiment: β-Tryptase In-Vitro Enzyme Assay. The conditions noted are these: human lung tryptase 1 nM, substrate H-D-HHT-Ala-Arg-pNa 500 μM, pH 7.4, room temperature. It counts as biochemical. As for the experimental part: The β-tryptase assay was conducted with human lung tryptase (Cortex Biochem #CP3033) in an aqueous buffer (10 mM Tris, 10 mM Hepes, 150 mM NaCl, 0.1% PEG 8000, pH 7.4) using the chromogenic substrate H-D-HHT-Ala-Arg-pNa. […] Percent inhibition was calculated by comparing the initial reaction velocity of samples without inhibitor to those with inhibitor. The initial reaction velocities were analyzed using Microsoft Excel.
`NCc1ccc2c(c1)C1(CCN(C(=O)/C=C/c3ccccc3)CC1)CO2` [Cpd 109, (E)-1-(phenylethenyl)carbonyl-5′-aminomethyl-spiro[piperidine-4,3′-(2H)-benzo[b]furan]] returned a half-maximal inhibitory concentration (IC50) of 0.21 µM.

Regarding `NCc1ccc2c(c1)C1(CCN(C(=O)c3cccs3)CC1)CO2` [Cpd 159, 1-thien-2-ylcarbonyl-5′-aminomethyl-spiro[piperidine-4,3′-(2H)-benzo[b]furan]], half-maximal inhibition (IC50) was put at 0.21 µM.

For `Cn1nc(C(F)(F)F)cc1-c1ccc(C(=O)N2CCC3(CC2)COc2ccc(CN)cc23)s1` [Cpd 127, 1-[5-(1-methyl-3-trifluoromethyl-pyrazol-5-yl)-thien-2-yl]carbonyl-5′-aminomethyl-spiro[piperidine-4,3′-(2H)-benzo[b]furan]], the concentration for half-maximal inhibition (IC50) turned out to be 3.7 µM. In the case of `NCc1ccc2c(c1)C1(CCN(C(=O)c3sc4ccccc4c3Cl)CC1)CO2` [Cpd 166, 1-(3-chloro-benzo[b]thien-2-yl)carbonyl-5′-aminomethyl-spiro[piperidine-4,3′-(2H)-benzo[b]furan]] it was 0.071 µM; in that of `NCc1ccc2c(c1)C1(CCN(C(=O)c3ccc(F)c(Cl)c3)CC1)CO2` [Cpd 27, 1-(3-chloro-4-fluoro-phenyl)carbonyl-5′-aminomethyl-spiro[piperidine-4,3′-(2H)-benzo[b]furan]], 0.034 µM.

For the molecule `NS(=O)(=O)NCc1ccc2c(c1)C1(CCN(C(=O)c3ccc(C#Cc4ccccc4)o3)CC1)CO2` [Cpd 305, 1-(5-phenylethynyl-furan-2-yl)carbonyl-5′-aminosulfonylaminomethyl-spiro[piperidine-4,3′-(2H)-benzo[b]furan]], half-maximal inhibition (IC50) was put at 6.3 µM. Against the preceding molecule, the IC50 is about 190-fold higher. `NCc1ccc2c(c1)C1(CCN(C(=O)c3cccc(Sc4ncc(Cl)cn4)c3)CC1)CO2` [Cpd 21, 1-[3-(5-chloro-pyrimidin-2-yl)thiophenyl]carbonyl-5′-aminomethyl-spiro[piperidine-4,3′-(2H)-benzo[b]furan]] had a 50% inhibitory concentration (IC50) of 0.51 µM. Next, `Cc1ccc(/C=C/C(=O)N2CCC3(CC2)COc2ccc(CN)cc23)cc1` [Cpd 180, (E)-1-(4-methyl-phenylethenyl)carbonyl-5′-aminomethyl-spiro[piperidine-4,3′-(2H)-benzo[b]furan]]: 0.78 µM. For the molecule `Cc1ccc2c(Cl)c(C(=O)N3CCC4(CC3)COc3ccc(CN)cc34)sc2c1` [Cpd 207, 1-(3-chloro-6-methyl-benzo[b]thien-2-yl)carbonyl-5′-aminomethyl-spiro[piperidine-4,3′-(2H)-benzo[b]furan]], the half-inhibitory concentration (IC50) is 1.5 µM. Against the preceding molecule, the IC50 is about 1.9-fold higher. In turn, `CC1=C(C(=O)N2CCC3(CC2)COc2ccc(CN)cc23)Cc2ccccc21` [Cpd 192, 1-(1-methyl-3H-inden-2-yl)carbonyl-5′-aminomethyl-spiro[piperidine-4,3′-(2H)-benzo[b]furan]] came in with an IC50 of 0.15 µM. `COC(=O)c1ccc(C(=O)N2CCC3(CC2)COc2ccc(CN)cc23)cc1` [Cpd 58, 1-(4-methoxycarbonyl-phenyl)carbonyl-5′-aminomethyl-spiro[piperidine-4,3′-(2H)-benzo[b]furan]] had a concentration for half-maximal inhibition (IC50) of 0.71 µM. This IC50 is about 4.7-fold higher than that of the molecule before. On to `NCc1ccc2c(c1)C1(CCN(C(=O)c3ccc(C#Cc4ccccc4Cl)o3)CC1)CO2` [Cpd 146, 1-[5-(2-chloro-phenylethynyl)-furan-2-yl]carbonyl-5′-aminomethyl-spiro[piperidine-4,3′-(2H)-benzo[b]furan]], for which 0.0052 µM corresponded to half-maximal inhibition (IC50). `NCc1ccc2c(c1)C1(CCN(C(=O)/C=C/c3ccccc3Cl)CC1)CO2` [Cpd 186, (E)-1-(2-chloro-phenylethenyl)carbonyl-5′-aminomethyl-spiro[piperidine-4,3′-(2H)-benzo[b]furan]] returned a half-maximal inhibitory concentration (IC50) of 0.053 µM. This IC50 lies about 10-fold higher than the previous one. In the case of `NCc1ccc2c(c1)C1(CCN(C(=O)C3c4ccccc4Oc4ccccc43)CC1)CO2` [Cpd 292, 1-9H-xanthen-9-ylcarbonyl-5′-aminomethyl-spiro[piperidine-4,3′-(2H)-benzo[b]furan]] it was 6.1 µM. In turn, `COc1ccc(C(=O)N2CCC3(CC2)COc2ccc(CN)cc23)cc1I` [Cpd 52, 1-(3-iodo-4-methoxy-phenyl)carbonyl-5′-aminomethyl-spiro[piperidine-4,3′-(2H)-benzo[b]furan]] yielded a half-maximal inhibitory concentration (IC50) of 0.022 µM. Compared with the last molecule, the IC50 is about 280-fold lower. Take `NCc1ccc2c(c1)C1(CCN(C(=O)c3ccc(F)cc3)CC1)CO2` [Cpd 43, 1-(4-fluoro-phenyl)carbonyl-5′-aminomethyl-spiro[piperidine-4,3′-(2H)-benzo[b]furan]]: the half-maximal inhibitory concentration (IC50) amounted to 0.25 µM. On to `NCc1ccc2c(c1)C1(CCN(C(=O)c3ccc(C#Cc4ccccc4)o3)CC1)CN2` [Cpd 319, 1-(5-phenylethynyl-furan-2-yl)carbonyl-5′-aminomethyl-spiro[piperidine-4,3′-(2H)-indole]], for which the concentration for half-maximal inhibition (IC50) came to 0.026 µM. Turning to `NCc1ccc2c(c1)C1(CCN(C(=O)c3cc4cc(C(F)(F)F)ccc4s3)CC1)CO2` [Cpd 200, 1-(5-trifluoromethyl-benzo[b]thien-2-yl)carbonyl-5′-aminomethyl-spiro[piperidine-4,3′-(2H)-benzo[b]furan]], the IC50 was determined as 4.1 µM. The molecule `NCc1ccc2c(c1)C1(CCN(C(=O)/C=C/c3ccc(F)c(F)c3)CC1)CO2` [Cpd 111, (E)-1-(3,4-difluoro-phenylethenyl)carbonyl-5′-aminomethyl-spiro[piperidine-4,3′-(2H)-benzo[b]furan]] had a 50% inhibitory concentration (IC50) of 0.19 µM. `NCc1ccc2c(c1)C1(CCN(C(=O)c3ccc(-c4ccc(Cl)cc4Cl)o3)CC1)CO2` [Cpd 136, 1-[5-(2,4-dichloro-phenyl)-furan-2-yl]carbonyl-5′-aminomethyl-spiro[piperidine-4,3′-(2H)-benzo[b]furan]] yielded an IC50 of 0.025 µM. `CS(=O)(=O)CC(=O)N1CC2(CCN(C(=O)c3ccc(C#Cc4ccccc4)o3)CC2)c2cc(CN)ccc21` [Cpd 333, 1-(5-phenylethynyl-furan-2-yl)carbonyl-1′-(methylsulfonylmethyl)carbonyl-5′-aminomethyl-spiro[piperidine-4,3′-(2H)-indole]] returned a half-maximal inhibitory concentration (IC50) of 0.065 µM. `NCc1ccc2c(c1)C1(CCN(C(=O)c3ccc(-c4ccc(Cl)cc4)o3)CC1)CO2` [Cpd 12, 1-[5-(4-chloro-phenyl)-furan-2-yl]carbonyl-5′-aminomethyl-spiro[piperidine-4,3′-(2H)-benzo[b]furan]]: half-maximal inhibition (IC50) required 0.066 µM.

`NCc1ccc2c(c1)C1(CCN(C(=O)c3sc4cc(F)ccc4c3Cl)CC1)CO2` [Cpd 171, 1-(3-chloro-6-fluoro-benzo[b]thien-2-yl)carbonyl-5′-aminomethyl-spiro[piperidine-4,3′-(2H)-benzo[b]furan]] showed an IC50 of 0.17 µM. `N#C/C(=C\c1ccccc1)C(=O)N1CCC2(CC1)COc1ccc(CN)cc12` [Cpd 248, (E)-1-(1-cyano-2-phenylethenyl)carbonyl-5′-aminomethyl-spiro[piperidine-4,3′-(2H)-benzo[b]furan]] gave an IC50 of 0.33 µM. This IC50 is about 1.9-fold higher than that of the molecule before. As for `NCc1ccc2c(c1)C1(CCN(C(=O)c3ccc(-c4ccc(Br)cc4)o3)CC1)CO2` [Cpd 140, 1-[5-(4-bromo-phenyl)-furan-2-yl]carbonyl-5′-aminomethyl-spiro[piperidine-4,3′-(2H)-benzo[b]furan]], the midpoint of inhibition, the IC50, lay at 0.04 µM. Compared with the last molecule, the IC50 is about 8.2-fold lower.

In turn, `COc1cccc(/C=C/C(=O)N2CCC3(CC2)COc2ccc(CN)cc23)c1` [Cpd 184, (E)-1-(3-methoxy-phenylethenyl)carbonyl-5′-aminomethyl-spiro[piperidine-4,3′-(2H)-benzo[b]furan]] displayed an IC50 of 0.21 µM. Next, `NCc1ccc2c(c1)C1(CCN(C(=O)c3ccc(/C=C\c4ccccc4)o3)CC1)CO2` [Cpd 77, (Z)-1-(5-phenylethenyl-furan-2-yl)carbonyl-5′-aminomethyl-spiro[piperidine-4,3′-(2H)-benzo[b]furan]]: 0.1 µM; `NCc1ccc2c(c1)C1(CCN(C(=O)CC3c4ccccc4Oc4ccccc43)CC1)CO2` [Cpd 293, 1-9H-xanthen-9-ylmethylcarbonyl-5′-aminomethyl-spiro[piperidine-4,3′-(2H)-benzo[b]furan]]: 1.2 µM; `COc1ccc(C(=O)N2CCC3(CC2)COc2ccc(CN)cc23)cc1Br` [Cpd 32, 1-(3-bromo-4-methoxy-phenyl)carbonyl-5′-aminomethyl-spiro[piperidine-4,3′-(2H)-benzo[b]furan]]: 0.041 µM.

Consider `NCc1ccc2c(c1)C1(CCN(C(=O)c3ccc(-c4ccccc4)s3)CC1)CO2` [Cpd 114, 1-(5-phenyl-thien-2-yl)carbonyl-5′-aminomethyl-spiro[piperidine-4,3′-(2H)-benzo[b]furan]], for which it took 0.24 µM to reach half-maximal inhibition (IC50).

Regarding `NCc1ccc2c(c1)C1(CCN(C(=O)Cc3ccc4ccccc4c3)CC1)CO2` [Cpd 84, 1-naphthalen-2-ylmethylcarbonyl-5′-aminomethyl-spiro[piperidine-4,3′-(2H)-benzo[b]furan]], inhibition was half-maximal at 1.4 µM (IC50). `CCCc1ccc(OCc2ccc(C(=O)N3CCC4(CC3)COc3ccc(CN)cc34)o2)c(OC)c1` [Cpd 212, 1-[5-(2-methoxy-4-propyl-phenoxymethyl)-furan-2-yl]carbonyl-5′-aminomethyl-spiro[piperidine-4,3′-(2H)-benzo[b]furan]] gave an IC50 of 0.37 µM. Turning to `NCc1ccc2c(c1)C1(CCN(C(=O)c3sc4ccc5ccccc5c4c3Cl)CC1)CO2` [Cpd 298, 1-(1-chloro-naphtho[2,1-b]thien-2-yl)carbonyl-5′-aminomethyl-spiro[piperidine-4,3′-(2H)-benzo[b]furan]], the concentration for half-maximal inhibition (IC50) amounted to 0.21 µM. Against the preceding molecule, the IC50 is about 1.8-fold lower. Turning to `CCCSc1sc(C(=O)N2CCC3(CC2)COc2ccc(CN)cc23)c2c1C(=O)CCC2` [Cpd 211, 1-(3-propylthio-4-oxo-5,6,7-trihydro-4H-benzo[c]thien-1-yl)carbonyl-5′-aminomethyl-spiro[piperidine-4,3′-(2H)-benzo[b]furan]], the half-inhibitory concentration (IC50) turned out to be 0.017 µM. Consider `NCc1ccc2c(c1)C1(CCN(C(=O)c3cc4c(s3)CCCC4)CC1)CO2` [Cpd 163, 1-(5,6,7-trihydro-4H-benzo[b]thien-2-yl)carbonyl-5′-aminomethyl-spiro[piperidine-4,3′-(2H)-benzo[b]furan]], for which the half-inhibitory concentration (IC50) amounted to 0.054 µM.
